Measured values from patent US20180237362A1, “NOVEL POLYGODIAL ANALOGS FOR THE TREATMENT OF CANCER AND OTHER PROLIFERATIVE DISEASES” (THE BOARD OF REGENTS OF THE UNIVERSITY OF TAXAS SYSTEM, priority 2015, published 2018).
Read-outs that look alike come from different tables or passages of the source.

Legend:
[1] = test system: human MCF-7 breast cancer; assay: MTT antiproliferative assay, MCF-7; format: cell-based; conditions: sextuplicates, read-out: GI50 in vitro values, MCF-7
Experimental: (§1) Human mammary carcinoma MCF-7 (ATCC HTB22) cells were cultured in RPMI supplemented with 10% FBS. The U87 cells (ATCC HTB-14) were cultured in DMEM culture medium, while the A549 cells (DSMZ ACC107) were cultured in RPMI culture medium supplemented with 10% heat-inactivated FBS. The GBM Hs683 (ATCC HTB-138) cells were cultivated in DMEM supplemented with 10% FBS. The human uterine sarcoma MES-SA (ATCC CRL1966) and MES-SA/D×5 cells were cultured in RPMI-1640 medium supplemented with 10% FBS with MES SA/D×5 maintained in the presence of 500 nM Doxorubicin (Sigma). SKMEL-28 cells (ATCC HTB72) and U373 GBM cells (ECACC 08061901) were cultured in RPMI culture medium supplemented with 10% heat-inactivated FBS. Cell culture media were supplemented with 4 mM glutamine (Lonza code BE17-605E), 100 μg/mL gentamicin (Lonza code 17-5182), and penicillin-streptomycin (200 units/ml and 200 μg/ml) (Lonza code 17-602E). The MDA-MB-231 (ATCC HTB-26) epithelial mammary adenocarcinoma cells were cultured in Eagle's minimum essential medium (EMEM; Invitrogen) containing 5% fetal calf serum (FCS, Cambrex), 2 mM L-glutamine (Invitrogen), 0.06% HEPES (Invitrogen) and penicillin (50 IU/ml)/streptomycin (50 µg/ml; Invitrogen) at 37° C. in a humidified atmosphere of 5% CO2 in air. Transformed mouse NPCs were cultured in suspension under neurosphere conditions at 37° C. in a humidified atmosphere of […] and 5% CO2 in DMEM F12 (Invitrogen 11320-074) supplemented with 1×B27 supplement (Invitrogen 17504-044), 5% penicillin-streptomycin (Biochrom 10378-017), 10 ng/ml EGF (R&D systems 236-EG), 10 ng/ml FGF (PeproTech 100-18B).
(§2) Antiproliferative properties of the synthesized compounds were evaluated by the MTT assay. All compounds were dissolved in DMSO at a concentration of either 100 μM or 50 μM prior to cell treatment. The cells were trypsinized and seeded at various cell concentrations depending on the cell type. The cells were grown for 24 h to 72 h, treated with compounds at concentrations ranging from 0.001 to 100 μM and incubated for 48 or 72 h in 100 or 200 μL media depending on the cell line used. The number of experiments and replicates varied depending on the cell line. Cells treated with 0.1% DMSO were used as a negative control; 1 μM PAO was used as a positive control.
(§3) The synthesized C12-Wittig derivatives were evaluated for antiproliferative activities in a panel of cancer cell lines that included apoptosis-resistant human U373 glioblastoma (GBM) (Lefranc et al., 2013), human A549 non-small cell lung cancer (NSCLC) and human SKMEL-28 melanoma (Mathieu et al., 2009) as well as apoptosis-sensitive human Hs683 anaplastic oligodendroglioma (Lefranc et al., 2013) and human MCF-7 breast cancer (Frolova et al., 2013).

[2] = biological target: T1, CHO cells that overexpress TRPV1 (CHO-TRPV1) (Homo sapiens, UniProt Q8NER1); assay: Calcium imaging, CHO-TRPV1; format: cell-based; conditions: for TRPV1 activation (calcium influx), CHO-TRPV1: polygodial 80 μM, P10 4 μM, P3 50 μM
T1 construct: expressed in transfected cells; host or cells: CHO cells
T1 sequence (Q8NER1 whole entry): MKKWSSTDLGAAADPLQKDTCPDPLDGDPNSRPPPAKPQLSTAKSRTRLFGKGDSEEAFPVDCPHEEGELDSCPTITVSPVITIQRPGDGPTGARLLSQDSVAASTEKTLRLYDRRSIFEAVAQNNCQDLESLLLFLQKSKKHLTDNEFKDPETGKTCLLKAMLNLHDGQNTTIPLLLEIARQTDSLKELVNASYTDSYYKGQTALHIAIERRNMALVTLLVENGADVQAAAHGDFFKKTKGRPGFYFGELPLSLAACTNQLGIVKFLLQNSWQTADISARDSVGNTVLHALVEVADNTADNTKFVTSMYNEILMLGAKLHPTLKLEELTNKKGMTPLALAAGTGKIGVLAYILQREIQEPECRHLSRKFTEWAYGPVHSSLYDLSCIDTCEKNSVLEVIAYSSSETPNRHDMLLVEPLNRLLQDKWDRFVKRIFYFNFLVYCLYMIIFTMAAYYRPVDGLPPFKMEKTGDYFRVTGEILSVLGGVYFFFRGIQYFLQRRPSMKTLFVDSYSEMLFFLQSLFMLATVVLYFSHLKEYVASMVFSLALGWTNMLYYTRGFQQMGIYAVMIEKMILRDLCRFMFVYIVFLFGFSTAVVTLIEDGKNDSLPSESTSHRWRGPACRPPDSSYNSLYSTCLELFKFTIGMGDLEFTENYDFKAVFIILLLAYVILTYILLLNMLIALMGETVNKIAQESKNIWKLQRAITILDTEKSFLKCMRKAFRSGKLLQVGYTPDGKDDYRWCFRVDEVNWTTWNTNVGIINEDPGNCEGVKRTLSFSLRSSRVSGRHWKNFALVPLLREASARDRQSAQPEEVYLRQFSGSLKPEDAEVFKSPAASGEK
Experimental: CHO cells that overexpress TRPV1 (CHO-TRPV1) were treated with polygodial (80 μM), P10 ([…]), or P3 (50 μM) and calcium influx was measured. Cells were also pre-treated with the TRPV1 antagonist capsazepine (CPZ; 10 μM) to determine if calcium influx via TRPV1 was inhibited. 3 μM ionomycin was used as a positive control. Fluo-4 Direct Calcium Assay Kit and Sweptfield confocal with Nikon Ti were used to visualize calcium influx and the images were analyzed using ImageJ software.

OSCC cell line HSC3 = assay: Cell viability (Cell Titer 96 Aqueous), HSC3; format: cell-based, human; conditions: for reversal of cytotoxicity by N-acetyl-cysteine: 60 μM compound ± 10 mM NAC; for cancer cell viability, HSC3: 48 hours, potency order P10, polygodial, P3
From the text: Human cancer cell lines were obtained from the American Type Culture Collection (ATCC, Manassas, Va., USA), the European Collection of Cell Culture (ECACC, Salisbury, UK) and the Deutsche Sammlung von Mikroorganismen und Zellkulturen (DSMZ, Braunschweig, Germany). The OSCC cell lines, Cal27 and HSC3 are derived from human primary tongue tumor. Cal27 cells were obtained from the American Type Culture Collection (Rockville, Md.). HSC3 cells were provided by Dr. Brian Schmidt. HeLa cells (cervical cancer cell line) were obtained from ATCC. Cells were cultured in DMEM, containing 10% FBS and 1% penicillin-streptomycin media, at 37° C. in 5% CO2. All cells were authenticated by Genetic DNA Laboratories.
The cytotoxicity of polygodial, P10, P3, and P27 in Cal27, HSC3, and HeLa cells was examined in vitro using a colorimetric assay, Cell Titer 96® Aqueous Non-Radioactive Cell Proliferation Assay. […] GraphPad Prism4 was used to perform statistical analysis.

HSC3 cells = assay: Calcium imaging, HSC3; format: cell-based, human; conditions: for calcium influx, HSC3: polygodial 80 μM, P10 4 μM, P3 50 μM
[3] = test system: human Hs683 anaplastic oligodendroglioma; assay: MTT antiproliferative assay, Hs683; format: cell-based; conditions: sextuplicates, read-out: GI50 in vitro values, Hs683
Experimental: as §1, §2, §3

[4] = test system: U373 human glioma cell line; assay: Quantitative videomicroscopy, U373; format: cell-based; conditions: at GI50 concentrations (Table 1)
Experimental: FIG. 8. In vitro videomicroscopic analysis of the anticancer effects of 1 and its C12-Wittig derivatives 5 and 13. The U373 human glioma cell line was treated with polygodial, 5 and 13 at their mean GI50 concentrations (Table 1) or left untreated. Videomicroscopy enabled taking pictures of the culture field every 4 minutes. The experiment was conducted once in triplicate. While the morphology of cells treated with 1 was fixed over time, 5 and 13 exerted cytostatic effects on U373 cells.
In an effort to gain insight into possible mechanisms associated with antiproliferative properties of 1 and the C12-Wittig derivatives, the morphological changes in cells treated with these compounds were studied with computer-assisted phase-contrast microscopy (Luchetti et al., 2012) (quantitative videomicroscopy).

HeLa cells = assay: Calcium imaging, HeLa; format: cell-based, human
[5] = test system: panel of cancer cell lines (A549, SKMEL-28, MCF-7, U373, Hs683); assay: MTT antiproliferative assay, panel of five cancer cell lines; format: cell-based, human; conditions: for GI50: mean over five cell lines, 72 h treatment, MTT assay, read-out: GI50 in vitro values, Mean + SEM
Experimental: as §2, §3

| Compound | GI50 ([1]; Homo sapiens, MCF7, 72 h treatment) [µM] | reversal of calcium influx by capsazepine, CHO-TRPV1 ([2]; CPZ 10 μM pre-treatment) | TRPV1 activation (calcium influx), CHO-TRPV1 [2] | reversal of cytotoxicity by N-acetyl-cysteine (OSCC cell line HSC3) | cancer cell viability, HSC3 (OSCC cell line HSC3) | reversal of calcium influx by capsazepine, HSC3 (HSC3 cells; CPZ 10 μM) | calcium influx, HSC3 (HSC3 cells) | GI50 ([3]; Homo sapiens, Hs 683, 72 h treatment) [µM] | morphological effect by videomicroscopy [4] | reversal of calcium influx by capsazepine, HeLa (HeLa cells; CPZ 10 μM) | antiproliferative activity in the cancer cell panel ([5]; 72-hour treatment) | GI50 ([5]; Homo sapiens) [µM] | GI50 ([1]; 72 h treatment) [µM] | GI50 ([3]; 72 h treatment) [µM] | calcium influx, HeLa (HeLa cells; polygodial 80 μM, P10 4 μM, P3 50 μM) | resistant populations in growth curves ([5]; all 5 cultures, concentrations just slightly exceeding GI50, close to 0% cell viability) | GI50 [5] [µM] |
| --- | --- | --- | --- | --- | --- | --- | --- | --- | --- | --- | --- | --- | --- | --- | --- | --- | --- |
| CC1(C)CCC[C@]2(C)[C@@H](C=O)C(C=O)=CC[C@@H]12 [Compound 1, Polygodial] | 75 | reversible by CPZ pre-treatment | activates TRPV1 | Cytotoxicity was reversible | reduced cancer cell viability in vitro | inhibited by CPZ | did induce calcium influx | 95 | strong fixative effects | CPZ did not fully reverse calcium influx | ineffective | > 85 | – | – | – | – | – |
| COC(=O)/C=C/C1=CC[C@H]2C(C)(C)CCC[C@]2(C)[C@H]1C=O [Compound 5] | – | – | do not | Cytotoxicity was reversible | reduced cancer cell viability in vitro | – | did not induce calcium influx | – | inhibited cancer cell proliferation without inducing cell death | – | – | – | 7 | 24 | did not induce calcium influx | absence of resistant populations | 20 ± 3 |
